This passage reports IC50 results from patent publication US11878975B2, “Substituted indole compounds useful as TLR inhibitors” (BRISTOL-MYERS SQUIBB COMPANY, priority 2017, dated 2024).

Format in all cases: cell-based
Assay [1] concerns the target T1, human TLR9 (Homo sapiens, UniProt Q9NR96).
T1 construct: host or cells: HEK-Blue cells
T1 sequence (Q9NR96 26-1032): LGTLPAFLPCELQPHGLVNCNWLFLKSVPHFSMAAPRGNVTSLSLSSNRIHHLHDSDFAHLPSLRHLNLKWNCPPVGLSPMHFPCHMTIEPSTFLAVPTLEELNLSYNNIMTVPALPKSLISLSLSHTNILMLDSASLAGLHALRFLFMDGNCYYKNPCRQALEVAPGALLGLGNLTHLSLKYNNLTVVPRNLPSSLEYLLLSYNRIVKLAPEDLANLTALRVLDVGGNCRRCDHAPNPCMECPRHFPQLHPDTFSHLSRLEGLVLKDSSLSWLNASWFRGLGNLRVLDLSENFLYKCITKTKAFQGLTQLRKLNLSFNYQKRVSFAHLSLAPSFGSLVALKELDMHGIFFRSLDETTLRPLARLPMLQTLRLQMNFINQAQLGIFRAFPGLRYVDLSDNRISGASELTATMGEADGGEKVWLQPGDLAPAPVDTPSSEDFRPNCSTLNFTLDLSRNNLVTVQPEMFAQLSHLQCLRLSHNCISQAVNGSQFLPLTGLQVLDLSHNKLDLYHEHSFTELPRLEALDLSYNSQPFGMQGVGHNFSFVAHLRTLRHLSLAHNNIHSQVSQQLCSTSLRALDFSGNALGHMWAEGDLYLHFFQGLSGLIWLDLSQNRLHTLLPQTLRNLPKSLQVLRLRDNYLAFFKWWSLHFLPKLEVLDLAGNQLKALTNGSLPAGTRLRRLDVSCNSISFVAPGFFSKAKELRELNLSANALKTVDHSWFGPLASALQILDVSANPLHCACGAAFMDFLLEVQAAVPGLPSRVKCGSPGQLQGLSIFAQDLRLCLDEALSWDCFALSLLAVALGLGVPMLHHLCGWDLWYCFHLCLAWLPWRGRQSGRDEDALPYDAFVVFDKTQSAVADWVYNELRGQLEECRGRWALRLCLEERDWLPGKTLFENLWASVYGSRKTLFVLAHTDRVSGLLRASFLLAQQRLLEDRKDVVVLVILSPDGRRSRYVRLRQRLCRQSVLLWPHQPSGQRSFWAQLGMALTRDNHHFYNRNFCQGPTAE
Kind of assay: TLR9 inhibition reporter assay (HEK-Blue cells, SEAP reporter, ODN2006 stimulation). The following applies: HEK-Blue cells overexpressing human TLR9, SEAP reporter, ODN2006 5 nM. An outline of the steps:
(§1)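 Percent inhibition is derived from SEAP signal, scaled between agonist-plus-DMSO wells and wells given a known inhibitor. Test compounds (0.05 nM–50 μM) are pre-incubated 30 min at room temperature before agonist addition (TLR7: 7.5 μM gardiquimod; TLR8: 15.9 μM R848; TLR9: 5 nM ODN2006) and 22 h culture at 37 °C.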

For assay [2], the target named is T2, human TLR8 (Homo sapiens, UniProt Q9NR97).
T2 construct: host or cells: HEK-Blue cells
T2 sequence (Q9NR97 27-1041): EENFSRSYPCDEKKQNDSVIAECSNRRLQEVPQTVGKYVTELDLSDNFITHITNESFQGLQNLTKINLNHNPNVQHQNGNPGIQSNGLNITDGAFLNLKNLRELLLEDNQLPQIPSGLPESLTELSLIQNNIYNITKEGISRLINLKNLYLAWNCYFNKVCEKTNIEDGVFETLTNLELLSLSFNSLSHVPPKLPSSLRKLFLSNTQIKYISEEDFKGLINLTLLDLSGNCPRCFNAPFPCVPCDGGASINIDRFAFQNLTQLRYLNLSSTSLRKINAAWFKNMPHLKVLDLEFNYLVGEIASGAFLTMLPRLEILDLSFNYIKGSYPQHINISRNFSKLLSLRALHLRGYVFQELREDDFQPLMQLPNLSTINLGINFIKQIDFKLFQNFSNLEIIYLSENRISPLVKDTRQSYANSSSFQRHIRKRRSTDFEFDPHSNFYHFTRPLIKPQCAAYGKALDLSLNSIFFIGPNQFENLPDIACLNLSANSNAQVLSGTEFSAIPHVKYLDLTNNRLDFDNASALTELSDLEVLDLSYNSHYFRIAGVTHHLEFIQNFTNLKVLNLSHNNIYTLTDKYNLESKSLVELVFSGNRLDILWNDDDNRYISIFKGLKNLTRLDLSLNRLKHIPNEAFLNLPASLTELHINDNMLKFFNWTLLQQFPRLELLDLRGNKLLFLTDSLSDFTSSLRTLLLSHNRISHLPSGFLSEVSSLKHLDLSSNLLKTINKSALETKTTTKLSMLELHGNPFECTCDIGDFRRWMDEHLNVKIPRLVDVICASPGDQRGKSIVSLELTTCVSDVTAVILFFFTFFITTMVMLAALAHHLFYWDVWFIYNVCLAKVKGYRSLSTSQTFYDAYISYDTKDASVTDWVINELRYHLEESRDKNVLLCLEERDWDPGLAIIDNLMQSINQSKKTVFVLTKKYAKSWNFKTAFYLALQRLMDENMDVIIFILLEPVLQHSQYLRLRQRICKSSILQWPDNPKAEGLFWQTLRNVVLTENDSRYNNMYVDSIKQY
Kind of assay: TLR8 inhibition reporter assay (HEK-Blue cells, SEAP reporter, R848 stimulation). The following applies: HEK-Blue cells overexpressing human TLR8, SEAP reporter, R848 15.9 μM. An outline of the steps:
as §1
On the technique in general: Reporter assays use an easily measured gene product as a stand-in for the process of interest.

Assay [3] addresses T3, human TLR7 (Homo sapiens, UniProt Q9NYK1).
T3 construct: host or cells: HEK-Blue cells
T3 sequence (Q9NYK1 27-1049): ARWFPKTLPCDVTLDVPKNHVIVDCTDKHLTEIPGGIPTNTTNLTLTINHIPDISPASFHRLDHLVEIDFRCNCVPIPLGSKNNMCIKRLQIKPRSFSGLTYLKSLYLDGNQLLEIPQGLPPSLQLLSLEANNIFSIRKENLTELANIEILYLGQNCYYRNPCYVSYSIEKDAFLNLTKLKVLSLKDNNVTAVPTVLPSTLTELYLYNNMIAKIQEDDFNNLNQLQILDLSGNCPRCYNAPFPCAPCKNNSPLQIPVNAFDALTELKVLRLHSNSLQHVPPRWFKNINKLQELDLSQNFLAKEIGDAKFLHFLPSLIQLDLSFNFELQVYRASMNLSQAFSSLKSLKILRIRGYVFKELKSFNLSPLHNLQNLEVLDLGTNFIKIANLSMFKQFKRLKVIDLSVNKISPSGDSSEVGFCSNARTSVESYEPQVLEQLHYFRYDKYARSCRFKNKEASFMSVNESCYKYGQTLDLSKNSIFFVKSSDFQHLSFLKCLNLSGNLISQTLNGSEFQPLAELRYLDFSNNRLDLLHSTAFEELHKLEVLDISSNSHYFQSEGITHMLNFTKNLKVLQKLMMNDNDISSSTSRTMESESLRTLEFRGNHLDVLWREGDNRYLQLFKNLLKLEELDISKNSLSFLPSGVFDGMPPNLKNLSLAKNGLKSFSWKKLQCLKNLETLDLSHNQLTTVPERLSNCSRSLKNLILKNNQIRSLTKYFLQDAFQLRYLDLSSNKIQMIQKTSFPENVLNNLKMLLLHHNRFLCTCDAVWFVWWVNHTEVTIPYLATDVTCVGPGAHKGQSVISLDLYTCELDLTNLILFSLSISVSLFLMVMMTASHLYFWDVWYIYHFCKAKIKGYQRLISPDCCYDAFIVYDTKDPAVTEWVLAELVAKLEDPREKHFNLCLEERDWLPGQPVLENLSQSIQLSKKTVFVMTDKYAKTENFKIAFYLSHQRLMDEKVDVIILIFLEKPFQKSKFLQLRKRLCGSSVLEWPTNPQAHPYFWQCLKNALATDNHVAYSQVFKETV
Kind of assay: TLR7 inhibition reporter assay (HEK-Blue cells, SEAP reporter, gardiquimod stimulation). The following applies: HEK-Blue cells overexpressing human TLR7, SEAP reporter, gardiquimod 7.5 μM. An outline of the steps:
as §1

The term IC50 denotes the midpoint of a concentration-inhibition curve. High values mean a need for much substance, low ones inhibition by little substance. On to `COc1cc(-c2[nH]c3ccc(C4CCC(NC(=O)CC(F)(F)F)CC4)cc3c2C(C)C)cn2ncnc12` (stereo not drawn) [Example 118, 3,3,3-trifluoro-N-(4-(3-isopropyl-2-(8-methoxy-[1,2,4]triazolo[1,5-a]pyridin-6-yl)-1H-indol-5-yl)cyclohexyl)propanamide], for which the IC50 turned out to be 15600 nM in assay [1], 22 nM in assay [2] and 2 nM in assay [3].

`COc1cc(-c2[nH]c3ccc(C4CN(C(=O)CN(C)C)CCO4)cc3c2C(C)C)cn2ncnc12` (stereo not drawn) [Example 334]: the IC50 in assay [1] is 2750 nM; in assay [2], 3.1 nM; in assay [3] it was 0.83 nM.

Take `CNC1CCC(c2ccc3[nH]c(-c4cn5ncnc5c(C)c4C)c(C(C)C)c3c2)CC1` (stereo not drawn) [Example 89]: the IC50 in assay [1] turned out to be 1320 nM; in assay [2], 0.58 nM; in assay [3], 0.23 nM.

Take `Cc1c(-c2[nH]c3ccc(C4CN(C(=O)CN(C)C)C4)cc3c2C(C)C)cn(C)c(=O)c1C` [Example 484]: the IC50 was 16500 nM in assay [1], 9.5 nM in assay [2] and 41 nM in assay [3].

Turning to `Cc1c(-c2[nH]c3ccc(C4CN(CCS(C)(=O)=O)C4)cc3c2C(C)C)cn2ncnc2c1C` [Example 543], the IC50 was 9490 nM in assay [1], 5.1 nM in assay [2] and 4 nM in assay [3].

As to `COc1cc(-c2[nH]c3ccc(CC4CN(C(=O)CN(C)C)C4)cc3c2C(C)C)cn2ncnc12` [Example 434], the IC50 in assay [1] came out at 7490 nM; in assay [2], 7.4 nM; in assay [3] it was 1 nM.

`Cc1cc(-c2[nH]c3ccc(CCN4CC[C@H](F)C4)cc3c2C(C)C)cn(C)c1=O` [Example 408]: the IC50 in assay [1] worked out at 13000 nM; in assay [2], 2.3 nM; in assay [3], 15 nM.

Take `COc1cc(-c2[nH]c3ccc(C4CC(N(C)C(=O)CN(C)C)C4)cc3c2C(C)C)cn2ncnc12` (stereo not drawn) [Example 588]: the IC50 in assay [1] is 1870 nM; in assay [2] it was 1.4 nM; in assay [3], 0.4 nM.

As for `Cc1c(-c2[nH]c3ccc(C4CN(C5CCOCC5)C4)cc3c2C(C)C)cn(C)c(=O)c1C` [Example 481], the IC50 in assay [1] amounted to 32800 nM; in assay [2], 27 nM; in assay [3] it was 109 nM.

With `Cc1c(-c2[nH]c3ccc(C4CC(N(C)C(=O)CN(C)C)C4)cc3c2C(C)C)cn2ncnc2c1C` (stereo not drawn) [Example 584], the values for the IC50 in assay [1], in assay [2] and in assay [3] were 5650 nM, 3.8 nM and 2 nM, respectively.

Turning to `COC1CCC(c2ccc3[nH]c(-c4cc(C)c5ncnn5c4)c(C(C)C)c3c2)CC1` (stereo not drawn) [Example 168, 6-(3-isopropyl-5-(4-methoxycyclohexyl)-1H-indol-2-yl)-8-methyl-[1,2,4]triazolo[1,5-a]pyridine], the IC50 in assay [1] came out at 34400 nM; in assay [2], 265 nM; in assay [3] it was 15 nM.

In the case of `Cc1c(-c2[nH]c3ccc(C4CCC(N5CC6(COC6)C5)CC4)cc3c2C(C)C)cn2ncnc2c1C` (stereo not drawn) [Example 113], the IC50 in assay [1] was 3250 nM; in assay [2], 0.79 nM; in assay [3] it was 1 nM.

Take `Cc1cc(-c2[nH]c3ccc(C4CN(C(=O)CN(C)C)CCO4)cc3c2C(C)C)cc(C)n1` (stereo not drawn) [Example 336]: the IC50 in assay [1] worked out at 530 nM; in assay [2] it was 10 nM; in assay [3] it was 10 nM.

For the compound `Cc1cc(-c2[nH]c3ccc(C4CN(C(C)C)CCO4)cc3c2C(C)C)cc(C)n1` (stereo not drawn) [Example 303], the figures for the IC50 in assay [1], in assay [2] and in assay [3] were 699 nM, 12 nM and 15 nM, respectively.

For `Cc1c(-c2[nH]c3ccc(C4CN(C(C)C)C4)cc3c2C(C)C)cn(C)c(=O)c1C` [Example 482], the IC50 in assay [1] came to 10300 nM; in assay [2] it was 9.2 nM; in assay [3], 34 nM.

Take `COc1cc(-c2[nH]c3ccc(C4CCC(N5CC(F)(F)C5)CC4)cc3c2C(C)C)cn2ncnc12` (stereo not drawn) [Example 19]: the values for the IC50 in assay [1], in assay [2] and in assay [3] were 29200 nM, 218 nM and 26 nM, respectively.

For `CNC(=O)CN1CCOC(c2ccc3[nH]c(-c4cc(OC)c5ncnn5c4)c(C(C)C)c3c2)C1` (stereo not drawn) [Example 310], the IC50 in assay [1] is over 50000 nM; in assay [2] it was 57 nM; in assay [3], 15 nM.

With `COCCN1CCN(C2CCC(c3ccc4[nH]c(-c5cc(OC)c6ncnn6c5)c(C(C)C)c4c3)CC2)CC1` (single isomer, unassigned) [Example 39], the IC50 in assay [1] worked out at 2230 nM; in assay [2], 5.8 nM; in assay [3] it was 9 nM.

For the compound `Cc1cc(-c2[nH]c3ccc(C4CCC(N)CC4)cc3c2C(C)C)cc(C)n1` (stereo not drawn) [Example 5], the IC50 in assay [1] was 597 nM; in assay [2], 14 nM; in assay [3], 1 nM.

As to `CNC(=O)CN1CCOC(c2ccc3[nH]c(-c4cc(C)c5ncnn5c4)c(C(C)C)c3c2)C1` (stereo not drawn) [Example 307], the IC50 in assay [1] was over 50000 nM; in assay [2], 47 nM; in assay [3], 8 nM.

On to `COc1cc(-c2[nH]c3ccc(C4CCC(NCC(N)=O)CC4)cc3c2C(C)C)cn2ncnc12` (stereo not drawn) [Example 107], for which the IC50 in assay [1] was found to be 1390 nM; in assay [2], 1.5 nM; in assay [3], 0.22 nM.
